Assay results taken from patent US12195429B2, “Cannabinoid derivatives” (CANOPY GROWTH CORPORATION, priority 2019, dated 2025).

Experiments:
human CB1 receptor [1] = biological target: T1, human CB1 receptor (Homo sapiens, UniProt P21554); experiment: CB1 radioligand competitive binding assay ([3H]CP 55,940 displacement); conditions: for Selectivity CB1: fold difference in binding affinity, CB1 over CB2, 1.00 = about the same affinity for both receptors
T1 construct: host or cells: CHO-K1

human CB2 receptor = biological target: T2, human CB2 receptor (Homo sapiens, UniProt P34972); experiment: CB2 radioligand competitive binding assay ([3H]CP 55,940 displacement); conditions: for Selectivity CB2: fold difference in binding affinity, CB2 over CB1, 1.00 = about the same affinity for both receptors
T2 construct: host or cells: CHO-K1
T2 sequence (P34972 whole entry): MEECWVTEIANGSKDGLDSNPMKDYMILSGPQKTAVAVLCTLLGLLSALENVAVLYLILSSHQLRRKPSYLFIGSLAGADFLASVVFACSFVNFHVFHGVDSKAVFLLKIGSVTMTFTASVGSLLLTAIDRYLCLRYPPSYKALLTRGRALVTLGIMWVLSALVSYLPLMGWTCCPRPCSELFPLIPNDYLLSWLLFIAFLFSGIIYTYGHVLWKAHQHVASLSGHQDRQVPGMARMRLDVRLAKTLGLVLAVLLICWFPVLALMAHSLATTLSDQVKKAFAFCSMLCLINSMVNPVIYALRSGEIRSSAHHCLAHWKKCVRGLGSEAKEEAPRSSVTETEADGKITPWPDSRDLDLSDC

human CB1 receptor [2] = biological target: T1, human CB1 receptor; experiment: PathHunter β-arrestin functional assay, CB1 receptor, agonist mode; type: cell-based; conditions: PathHunter CHO-K1 CNR1 β-arrestin cells; normalized to CP55,940
human CB1 receptor [3] = biological target: T1, human CB1 receptor; experiment: PathHunter β-arrestin functional assay, CB1 receptor, antagonist mode; type: cell-based
[4] = read-out: IC50 towards human CB1 receptor, antagonist mode

T1 sequence (P21554 whole entry): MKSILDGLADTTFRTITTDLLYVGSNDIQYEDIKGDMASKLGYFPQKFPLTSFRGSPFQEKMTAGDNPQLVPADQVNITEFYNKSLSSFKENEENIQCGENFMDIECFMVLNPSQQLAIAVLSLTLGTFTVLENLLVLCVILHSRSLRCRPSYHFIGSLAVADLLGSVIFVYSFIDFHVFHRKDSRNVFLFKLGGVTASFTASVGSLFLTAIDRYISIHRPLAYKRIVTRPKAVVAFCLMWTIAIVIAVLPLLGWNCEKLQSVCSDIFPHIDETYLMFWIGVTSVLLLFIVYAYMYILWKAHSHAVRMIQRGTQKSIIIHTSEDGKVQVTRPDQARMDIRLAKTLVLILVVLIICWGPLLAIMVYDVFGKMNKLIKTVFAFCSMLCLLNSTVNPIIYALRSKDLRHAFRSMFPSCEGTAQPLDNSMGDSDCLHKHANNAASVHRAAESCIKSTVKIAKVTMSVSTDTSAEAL

Structure (SMILES) | IC50 (human CB1 receptor [1]) [µM] | IC50 (human CB2 receptor) [µM] | Selectivity CB2 (human CB2 receptor) [fold] | Selectivity CB1 (human CB1 receptor [1]) [fold] | activity towards the human CB1 receptor, agonist mode (human CB1 receptor [2]) | IC50 (human CB1 receptor [3]; [4]) [µM] | IC50 (human CB1 receptor [3]) [µM]
C=C(C)[C@@H]1CCC(C)=C[C@H]1c1c(O)cc(CCCCC)c(-c2cn[nH]c2)c1O [Compound 41d, 5′-methyl-4-pentyl-2′-(prop-1-en-2-yl)-3-(1H-pyrazol-4-yl)-1′,2′,3′,4′-tetrahydro-[1,1′-biphenyl]-2,6-diol] | 1 to 4.99 | 1 to 4.99 | 1.60 |  |  |  | 
C=C(C)[C@@H]1CCC(C)=C[C@H]1c1c(O)cc(CCCCC)c(-c2ccncc2)c1O [Compound 14d, 5′-methyl-4-pentyl-2′-(prop-1-en-2-yl)-3-(pyridin-4-yl)-1′,2′,3′,4′-tetrahydro-[1,1′-biphenyl]-2,6-diol] | 1 to 4.99 | 1 to 4.99 | 1.00 | 1.00 |  |  | 
C=C(C)[C@@H]1CCC(C)=C[C@H]1c1c(O)cc(CCCCC)c(-c2nnn[nH]2)c1O [Compound 3d, 5′-methyl-4-pentyl-2′-(prop-1-en-2-yl)-3-(1H-tetrazol-5-yl)-1′,2′,3′,4′-tetrahydro-[1,1′-biphenyl]-2,6-diol] | 1 to 4.99 | 1 to 4.99 | 1.00 | 1.00 |  |  | 
C=C(C)[C@@H]1CCC(C)=C[C@H]1c1c(O)cc(CCCCC)c(-c2cccnc2)c1O [Compound 12d, 5′-methyl-4-pentyl-2′-(prop-1-en-2-yl)-3-(pyridin-3-yl)-1′,2′,3′,4′-tetrahydro-[1,1′-biphenyl]-2,6-diol] | 1 to 4.99 | 1 to 4.99 | 1.39 |  |  |  | 
CCCCCc1cc(OC)c(C2C=C(C)CCC2)c(OC)c1-c1cccc(N2CCOCC2)c1 (centres unmarked) [Compound 38c, 4-(2′,4′-dimethoxy-5″-methyl-6′-pentyl-1″,2″,3″,4″-tetrahydro-[1,1′:3′,1″-terphenyl]-3-yl)morpholine] | < 0.5 | < 0.5 | 19.05 |  |  |  | 
C=C(C)[C@@H]1CCC(C)=C[C@H]1c1c(O)cc(CCCCC)c(-c2c(C)noc2C)c1O [Compound 36d, 3-(3,5-dimethylisoxazol-4-yl)-5′-methyl-4-pentyl-2′-(prop-1-en-2-yl)-1′,2′,3′,4′-tetrahydro-[1,1′-biphenyl]-2,6-diol] | 1 to 4.99 | 1 to 4.99 |  | 2.22 |  |  | 
CCCCCc1cc(O)c(C2C=C(C)CCC2)c(O)c1-c1cccs1 (centres unmarked) [Compound 16c, 5′-methyl-4-pentyl-3-(thiophen-2-yl)-1′,2′,3′,4′-tetrahydro-[1,1′-biphenyl]-2,6-diol] | 1 to 4.99 | 0.5 to 0.99 | 2.22 |  | minimal to no activity | 1 to 3 | 
C=C(C)[C@@H]1CCC(C)=C[C@H]1c1c(O)cc(CCCCC)c(-c2ccnn2C)c1O [Compound 33d, 5′-methyl-3-(1-methyl-1H-pyrazol-5-yl)-4-pentyl-2′-(prop-1-en-2-yl)-1′,2′,3′,4′-tetrahydro-[1,1′-biphenyl]-2,6-diol] | 1 to 4.99 | 1 to 4.99 | 1.00 | 1.00 |  |  | 
CCCCCc1cc(O)c(C2C=C(C)CCC2)c(O)c1-c1nnn[nH]1 (centres unmarked) [Compound 3c, 5′-methyl-4-pentyl-3-(1H-tetrazol-5-yl)-1′,2′,3′,4′-tetrahydro-[1,1′-biphenyl]-2,6-diol] | 1 to 4.99 | 1 to 4.99 |  |  |  | 1 to 3 | 
CCCCCc1cc(OC)c(C2C=C(C)CCC2)c(OC)c1-c1ccccc1 (centres unmarked) [Compound 40c, 2′,6′-dimethoxy-5-methyl-4′-pentyl-1,2,3,4-tetrahydro-1,1′:3′,1″-terphenyl] | > 5 | 1 to 4.99 | 1.79 |  |  |  | 
C=C(C)[C@@H]1CCC(C)=C[C@H]1c1c(O)cc(CCCCC)c(-c2ccco2)c1O [Compound 15d, 3-(furan-2-yl)-5′-methyl-4-pentyl-2′-(prop-1-en-2-yl)-1′,2′,3′,4′-tetrahydro-[1,1′-biphenyl]-2,6-diol] | > 5 | 1 to 4.99 | 3.57 |  |  |  | 
CCCCCc1cc(O)c(C2C=C(C)CCC2)c(O)c1-c1cccnc1 (centres unmarked) [Compound 12c, 5′-methyl-4-pentyl-3-(pyridin-3-yl)-1′,2′,3′,4′-tetrahydro-[1,1′-biphenyl]-2,6-diol] | > 5 | 0.5 to 0.99 | 7.27 |  |  |  | 
C=C(C)[C@@H]1CCC(C)=C[C@H]1c1c(O)cc(CCCCC)c(-c2cccs2)c1O [Compound 16d] | 1 to 4.99 | < 0.5 | 7.50 |  |  |  | 
C=C(C)[C@@H]1CCC(C)=C[C@H]1c1c(O)cc(CCCCC)c(-c2ccsc2)c1O [Compound 17d] | 1 to 4.99 | < 0.5 | 33.33 |  | minimal to no activity |  | 1 to 3
CCCCCc1cc(O)c(C2C=C(C)CCC2)c(O)c1-c1ccsc1 (centres unmarked) [Compound 17c, 5′-methyl-4-pentyl-3-(thiophen-3-yl)-1′,2′,3′,4′-tetrahydro-[1,1′-biphenyl]-2,6-diol] | 1 to 4.99 | 1 to 4.99 |  |  |  | 1 to 3 | 
CCCCCc1cc(OC)c(C2C=C(C)CCC2)c(OC)c1-c1cccnc1 (centres unmarked) [Compound 39c, 3-(2,6-dimethoxy-5′-methyl-4-pentyl-1′,2′,3′,4′-tetrahydro-[1,1′-biphenyl]-3-yl)pyridine] | > 5 | > 5 | 1.47 |  |  |  | 
CCCCCc1cc(O)c(C2C=C(C)CCC2)c(O)c1-c1ccco1 (centres unmarked) [Compound 15c, 3-(furan-2-yl)-5′-methyl-4-pentyl-1′,2′,3′,4′-tetrahydro-[1,1′-biphenyl]-2,6-diol] | 1 to 4.99 | 1 to 4.99 |  |  |  | 1 to 3 | 
C=C(C)[C@@H]1CCC(C)=C[C@H]1c1c(O)cc(CCCCC)c(-c2cncnc2)c1O [Compound 13d, 5′-methyl-4-pentyl-2′-(prop-1-en-2-yl)-3-(pyrimidin-5-yl)-1′,2′,3′,4′-tetrahydro-[1,1′-biphenyl]-2,6-diol] | 1 to 4.99 | 1 to 4.99 | 2.35 |  |  |  | 
C=C(C)[C@@H]1CCC(C)=C[C@H]1c1c(O)cc(CCCCC)c(-c2cc3ccccc3s2)c1O [Compound 34d, 4-(benzothiophen-2-yl)-2-[6-isopropenyl-3-methyl-cyclohez-2-en-1-yl]-5-pentyl-benzene-1,3-diol] | 1 to 4.99 | < 0.5 | 7.22 |  | minimal to no activity | 1 to 3 | 
CCCCCc1cc(O)c(C2C=C(C)CCC2)c(O)c1-c1cncnc1 (centres unmarked) [Compound 13c, 5′-methyl-4-pentyl-3-(pyrimidin-5-yl)-1′,2′,3′,4′-tetrahydro-[1,1′-biphenyl]-2,6-diol] | 1 to 4.99 | 1 to 4.99 |  |  |  |  | 
C=C(C)[C@@H]1CCC(C)=C[C@H]1c1c(O)cc(CCCCC)c(-c2ccnc(C)c2)c1O [Compound 35d, 2-(6-isopropenyl-3-methyl-cyclohex-2-en-1-yl)-4-(2-methyl-4-pyridyl)-5-pentyl-benzene-1,3-diol] | 1 to 4.99 | 1 to 4.99 | 1.60 |  |  |  | 
